We go through two compounds from patent EP4527828A1, “BIPHENYL COMPOUND, PHARMACEUTICAL COMPOSITION, METHOD FOR PREPARING SAME, AND USE THEREOF” (Longivitron (Suzhou) Biotechnology Co., Ltd, priority 2022, dated 2023).

Read-outs that look alike come from different tables or passages of the source.

The test system of assay [1] is mouse liver cancer HEPA1-6. In kind it is in vivo. The following applies: 27 days. As to the method: (1) 32 8-week-old female C57L mice were selected and divided into 5 cages. HEPA1-6 cells cultured with DMEM + 10% FBS in vitro were washed with PBS and digested with 0.25% trypsin for 3 min. The digestion was terminated with a serum-containing medium, the cells were centrifuged at 2500 rpm for 5 min, the supernatant was discarded, and the cells were resuspended with an appropriate amount of PBS twice. The number of cells was 1.14 × 10^7 cells/mL as counted with a BioRad counting instrument. The cell suspension was placed in an Erlenmeyer flask in an ice bath for later use. The tumor fluid was evenly aspirated using a 1 mL sterile syringe and inoculated 0.2 mL/mouse. After the inoculation was completed, the mice continued to be fed under the initial feeding conditions.
(2) Animal grouping: On the second day after tumor fluid inoculation of C57B/L mice, 32 mice were randomly grouped: 8 mice in a control group, 6 mice in a Compound 4-5 mg/kg group, 6 mice in a Compound 4-10 mg/kg group, 6 mice in a Compound 4-20 mg/kg group, and 6 mice in a positive control drug cyclophosphamide (CTX)-100 mg/kg group. The drug test groups were given the drugs to be tested orally once a day, and the positive control drug CTX was injected intraperitoneally once. The mice were weighed and administered daily.
(3) Drug preparation: The corresponding amounts of the drugs to be tested were weighed according to the final concentrations of the experimental groups. The drugs of the Compound 4-5 mg/kg group, the Compound 4-10 mg/kg group, and the Compound 4-20 mg/kg group were prepared with 5% CMCNa + Tween 80, and CTX was prepared with normal saline. The mice in the control group were given 5% CMCNa solution orally. The dosages were as follows: 0.4 mL/20 g body weight of the animal for intragastric administration, and 0.2 mL/20 g body weight of the animal for intraperitoneal injection.
(4) The animals were sacrificed, and the tumors were separated and weighed. The animals in each group were treated immediately 1 h after administration on the last day and weighed, and the tumor tissue was separated and weighed.

A further assay addresses T1, LAG3/FGL1 (Homo sapiens, UniProt P18627).
T1 sequence (P18627 23-450 limits assumed): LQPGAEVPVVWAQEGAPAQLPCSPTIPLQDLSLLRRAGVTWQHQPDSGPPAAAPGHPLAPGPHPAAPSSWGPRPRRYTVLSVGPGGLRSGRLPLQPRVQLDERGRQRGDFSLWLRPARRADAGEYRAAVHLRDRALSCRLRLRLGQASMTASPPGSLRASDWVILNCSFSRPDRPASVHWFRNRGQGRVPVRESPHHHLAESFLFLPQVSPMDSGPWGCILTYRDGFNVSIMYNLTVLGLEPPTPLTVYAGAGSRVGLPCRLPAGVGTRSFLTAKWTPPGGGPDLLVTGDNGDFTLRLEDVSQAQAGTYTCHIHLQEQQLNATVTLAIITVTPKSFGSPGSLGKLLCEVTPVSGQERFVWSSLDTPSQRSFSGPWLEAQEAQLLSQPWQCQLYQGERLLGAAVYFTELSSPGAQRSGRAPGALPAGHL
Briefly: HTRF binding inhibition of LAG3 and its ligand FGL1. The following applies: Table 2; read-out: IC50 value for inhibiting LAG3/FGL1 interaction. The protocol:
Reagent preparation: ① Tag1-LAG3 protein: a protein solution with a concentration of 50 nM (20 µL with a final system concentration of 10 nM) was prepared using a diluent. ② Tag2-FGL1 protein: a protein solution with a concentration of 100 nM (20 µL with a final system concentration of 20 nM) was prepared using a diluent. ③ Anti-Tag1-Tb: a 100× stock solution was diluted with a detection buffer to a 1 × stock solution. ④ Anti-Tag2-XL665: a 100× stock solution was diluted with a detection buffer to a 1 × stock solution.
Assay step: (1) 2 µL of compound solution (with a concentration to be measured of 10×) was added to a 384-well opaque plate having a white background, 4 µL of Tag1-LAG3 protein and 4 µL of Tag2-FGL1 protein were added, respectively, and the plate was incubated at room temperature for 15 min; (2) Anti-Tag1-Tb and Anti-Tag2-XL665 were mixed at a ratio of 1:1 in advance, and 10 µL of mix solution was added to each well; (3) the plate was gently mixed, sealed, and incubated at room temperature for 1 h or overnight before detection.
A general note: Time-resolved FRET reads energy transfer from a long-lived donor to a nearby acceptor.

[2] abbreviates: HEPA1-6, 10 mg/kg po once a day.
The mark [3] stands for this setting: HEPA1-6, 20 mg/kg po once a day.

Take `CCCCCCOc1ccc2cc1-c1cc(ccc1OCCCCCC)C(=O)CCCCCC2=O` [Compound 4]: the Inhibition rate in assay [1] (HEPA1-6, 5 mg/kg po once a day) amounted to 24.72%; in assay [1] (setting [2]), 52%; in assay [1] (setting [3]), 36.56%. Further, the Tumor weight came to 0.510 ± 0.312 g in assay [1] (HEPA1-6, 5 mg/kg po once a day); 0.325 ± 0.256 g in assay [1] (setting [2]); 0.430 ± 0.140 g in assay [1] (setting [3]).
Take `CCCCCCOc1ccc(C(=O)O)cc1-c1cc(C(=O)NCCCCNC(=O)C(F)(F)F)ccc1OCCCCCC` [Compound 8]: the IC50 at LAG3/FGL1 worked out at 10 µM.
